Values after ≈ are worked out from the molar mass of the structure shown.
How the values were obtained:
C. parapsilosis [1] = experiment: Anticandidal activity, well-diffusion method; assay type: cell-based; details: 50 μl per 6 mm well, 100 mg/ml, 37° C., 24-48 h
Text: (§1) The fungal strain was isolated from a soil sample collected from Al-Qassim region, Kingdom of Saudi Arabia (KSA). The malt extract agar (MEA) medium (malt extract, 20 g; peptone, 1 g; dextrose, 20 g; agar, 20 g; distilled water, 1 L) was used for isolation, cultivation, identification and production of fungal secondary metabolites of the fungal isolate and test Candida species. Ten clinically isolated Candida species; namely, Candida albicans, C. dubliniensis, C. famata, C. glabrata, C. inconspicua, C. kefyr, C. krusei, C. norvegensis, C. parapsilosis, and C. tropicalis were used as test microorganisms. The fungal isolate and the test organism were identified at the Microbiology Laboratory, Regional Center for Mycology and Biotechnology, Al-Azhar University, Cairo, Egypt.
(§2) Anticandidal activities of total alcoholic extract of Petriella setifera and the isolated compound (amnomopin) were determined using well-diffusion method according to Zain et al. (2012). Petri plates containing 20 ml of malt extract agar medium were seeded with 48 h cultures of candidal inoculums (1-2×10^7 Colony Forming Units [CFU/ml]). Wells (6 mm in diameter) were cut off into agar and 50 μl of extract and the isolated compound were tested in a concentration of 100 mg/ml and incubated at 37° C. for 24-48h. The assessment of anticandidal activity was based on measurement of the diameter of the inhibition zone formed around the well.

C. krusei [2] = experiment: Anticandidal activity, well-diffusion method; assay type: cell-based; details: 50 μl per 6 mm well, 100 mg/ml, 37° C., 24-48 h
Text: as §1, §2

C. inconspicua [3] = experiment: Anticandidal activity, well-diffusion method; assay type: cell-based; details: 50 μl per 6 mm well, 100 mg/ml, 37° C., 24-48 h
Text: as §1, §2

C. kefyr [4] = experiment: Anticandidal activity, well-diffusion method; assay type: cell-based; details: 50 μl per 6 mm well, 100 mg/ml, 37° C., 24-48 h
Text: as §1, §2

C. norvegensis [5] = experiment: Anticandidal activity, well-diffusion method; assay type: cell-based; details: 50 μl per 6 mm well, 100 mg/ml, 37° C., 24-48 h
Text: as §1, §2

C. dubliniensis [6] = experiment: Anticandidal activity, well-diffusion method; assay type: cell-based; details: 50 μl per 6 mm well, 100 mg/ml, 37° C., 24-48 h
Text: as §1, §2

Candida albicans [7] = experiment: Anticandidal activity, well-diffusion method; assay type: cell-based; details: C. albicans, 50 μl per 6 mm well, 100 mg/ml, 37° C., 24-48 h
Text: as §1, §2

C. glabrata [8] = experiment: Anticandidal activity, well-diffusion method; assay type: cell-based; details: 50 μl per 6 mm well, 100 mg/ml, 37° C., 24-48 h
Text: as §1, §2

C. tropicalis [9] = experiment: Anticandidal activity, well-diffusion method; assay type: cell-based; details: 50 μl per 6 mm well, 100 mg/ml, 37° C., 24-48 h
Text: as §1, §2

C. famata [10] = experiment: Anticandidal activity, well-diffusion method; assay type: cell-based; details: 50 μl per 6 mm well, 100 mg/ml, 37° C., 24-48 h
Text: as §1, §2

Male Wister rats = experiment: Sub-chronic toxicity test, liver and kidney functions; assay type: in vivo
Experimental: Male Wister rats (weighing about 150-180 g) were divided into 3 equal groups each of 10 rats. Rats of the first group received the vehicle in a dose of 5 mL/kg and left as normal control. Rats of the second and third groups were administered the alcoholic extract of the investigated fungi (500 mg/kg) and the isolated compound (50 mg/kg). All medications were administered orally daily for 15 consecutive days. Animals were maintained under identical conditions with food and water ad libitum for the entire period with close observation. At the end of the experimental period, blood samples were collected from the orbital plexus of rats, 6 h after the last dose. Samples were left to clot at room temperature for 20 min. The obtained sera were collected and used to determine the activity of (AST) aspirate aminotransferase and (ALT) alanine aminotransferase, levels of urea and creatinine were also estimated (Awaad et al. 2014).
The effect of the total alcohol extract of Petriella setifera and isolated compound (Amnomopin) on liver and kidney functions are provided in Table 2. Three groups of animals (n=10) were orally administered the total alcohol extracts (500 mg/kg) and the isolated compound (50 mg/kg) daily for 15 days, while the control group received water orally. After the treatment period, blood samples were collected, sera were separated and different parameters were measured as provided in Table 2. All values were expressed as mean±S.D.

C. parapsilosis [11] = experiment: Minimum inhibitory concentration, micro-dilution method; assay type: cell-based; details: malt extract broth, 37° C., 24-48 h
Text: as §1
(§3) The minimum inhibitory concentration (MIC) was determined for both total extract of Petriella setifera and the isolated compound by micro-dilution method using serially diluted (2 folds) according to Awaad et al. (2012). The MIC was determined by dilution of total extract and isolated compound of concentrations of 0.0-1000 μg/ml. Equal volume of each extract and malt extract broth were mixed in a test tube. Specifically, 0.1 ml of standardized inoculum (1-2×10^7 CFU/ml) was added in each tube. The tubes were incubated at 37° C. for 24-48 h. Two control tubes; tube containing the growth medium, saline and the inoculum, were maintained for each test batch. The lowest concentration (highest dilution) of the extract that produced no visible candidal growth (no turbidity) when compared with the control tubes were regarded as MIC.

C. krusei [12] = experiment: as above; assay type: cell-based; details: malt extract broth, 37° C., 24-48 h
Text: as §1, §3

C. inconspicua [13] = experiment: as above; assay type: cell-based; details: malt extract broth, 37° C., 24-48 h
Text: as §1, §3

C. kefyr [14] = experiment: as above; assay type: cell-based; details: malt extract broth, 37° C., 24-48 h
Text: as §1, §3

C. norvegensis [15] = experiment: as above; assay type: cell-based; details: malt extract broth, 37° C., 24-48 h
Text: as §1, §3

C. dubliniensis [16] = experiment: as above; assay type: cell-based; details: malt extract broth, 37° C., 24-48 h
Text: as §1, §3

Candida albicans [17] = experiment: as above; assay type: cell-based; details: C. albicans, malt extract broth, 37° C., 24-48 h
Text: as §1, §3

C. glabrata [18] = experiment: as above; assay type: cell-based; details: malt extract broth, 37° C., 24-48 h
Text: as §1, §3

C. tropicalis [19] = experiment: as above; assay type: cell-based; details: malt extract broth, 37° C., 24-48 h
Text: as §1, §3

C. famata [20] = experiment: as above; assay type: cell-based; details: malt extract broth, 37° C., 24-48 h
Text: as §1, §3

[21] = rat serum, oral daily for 15 days, mean±S.D., n=10

SMILES: CC1(C)CCC2(C(=O)O)CCC3(C)C(CCC4C5(C)CCC(O[C@@H]6OC(CO)[C@@H](O)C(O)C6O[C@@H]6OC(CO)[C@@H](O)C(O)C6O)C(C)(C)C5=CCC43C)C2C1 (stereo partly drawn) [Amnomopin, 3β-diglucoside-5, 12-28-oic acid]
- zone of inhibition at 100000 µg/mL (C. parapsilosis [1]; Lodderomyces parapsilosis, read-out: Diameter of inhibition zone): 18.4 ± 0.72 mm
- zone of inhibition at 100000 µg/mL (C. krusei [2]; Pichia kudriavzevii, read-out: Diameter of inhibition zone): 20.9 ± 0.58 mm
- zone of inhibition at 100000 µg/mL (C. inconspicua [3]; Pichia inconspicua, read-out: Diameter of inhibition zone): 18.3 ± 2.1 mm
- Diameter of inhibition zone (C. kefyr [4]): 24.2 ± 2.10 mm
- zone of inhibition at 100000 µg/mL (C. kefyr [4]; Kluyveromyces marxianus, read-out: Diameter of inhibition zone): 24.2 ± 2.1 mm
- Diameter of inhibition zone (C. norvegensis [5]): 22.1 ± 1.20 mm
- zone of inhibition at 100000 µg/mL (C. norvegensis [5]; Pichia norvegensis, read-out: Diameter of inhibition zone): 22.1 ± 1.2 mm
- zone of inhibition at 100000 µg/mL (C. dubliniensis [6]; Candida dubliniensis, read-out: Diameter of inhibition zone): 16.2 ± 0.63 mm
- Diameter of inhibition zone (Candida albicans [7]): 23.1 ± 2.10 mm
- zone of inhibition at 100000 µg/mL (Candida albicans [7]; Candida albicans, read-out: Diameter of inhibition zone): 23.1 ± 2.1 mm
- zone of inhibition at 100000 µg/mL (C. glabrata [8]; Nakaseomyces glabratus, read-out: Diameter of inhibition zone): 16.3 ± 0.63 mm
- zone of inhibition at 100000 µg/mL (C. tropicalis [9]; Candida tropicalis, read-out: Diameter of inhibition zone): 19.4 ± 1.2 mm
- zone of inhibition at 100000 µg/mL (C. famata [10]; Debaryomyces hansenii, read-out: Diameter of inhibition zone): 20.1 ± 1.5 mm
- Kidney function Blood urea (Male Wister rats; [21]): 30.85 ± 1.83 mg/dL
- Kidney function Serum Creatinine (Male Wister rats; [21]): 0.38 ± 0.02 mg/dL
- Liver function ALT (Male Wister rats; [21]): 146.30 ± 4.30 U/l
- Liver function AST (Male Wister rats; [21]): 66.72 ± 2.82 U/l
- effect on the activity of ALT, AST and the levels of blood urea and serum creatinine (Male Wister rats; rats, oral dosing for 15 days, extract 500 mg/kg, compound 50 mg/kg): did not show any significant effect
- MIC (C. parapsilosis [11]; Lodderomyces parapsilosis): 32.2 µg/mL (≈ 41.3 µM)
- MIC (C. krusei [12]; Pichia kudriavzevii): 1.95 µg/mL (≈ 2.5 µM)
- MIC (C. inconspicua [13]; Pichia inconspicua): 32.2 µg/mL (≈ 41.3 µM)
- MIC (C. kefyr [14]; Kluyveromyces marxianus): 0.49 µg/mL (≈ 0.627 µM)
- Minimum Inhibitory Concentration (MIC) (C. kefyr [14]): 00.98 µg/mL
- MIC (C. norvegensis [15]; Pichia norvegensis): 0.98 µg/mL (≈ 1.25 µM)
- Minimum Inhibitory Concentration (MIC) (C. norvegensis [15]): 01.95 µg/mL
- MIC (C. dubliniensis [16]; Candida dubliniensis): 62.5 µg/mL (≈ 80 µM)
- Minimum Inhibitory Concentration (MIC) (Candida albicans [17]): 01.95 µg/mL
- Minimum Inhibitory Concentration (MIC) (Candida albicans [17]; listed as amnomopin): 00.49 µg/mL
- MIC (C. glabrata [18]; Nakaseomyces glabratus): 62.5 µg/mL (≈ 80 µM)
- MIC (C. tropicalis [19]; Candida tropicalis): 7.81 µg/mL (≈ 10 µM)
- MIC (C. famata [20]; Debaryomyces hansenii): 3.9 µg/mL (≈ 4.99 µM)

SMILES: C[C@@H]1[C@H](O)[C@@H](C)/C=C/C=C/C=C/C=C/C=C/C=C/C=C/[C@H](O[C@@H]2O[C@H](C)[C@@H](O)[C@H](N)[C@@H]2O)C[C@@H]2O[C@](O)(C[C@@H](O)C[C@@H](O)[C@H](O)CC[C@@H](O)C[C@@H](O)CC(=O)O[C@H]1C)C[C@H](O)[C@H]2C(=O)O [Amphotericin B, reference compound]
- Diameter of inhibition zone (C. parapsilosis [1]): 32.4 ± 0.58 mm
- Diameter of inhibition zone (C. krusei [2]): 23.7 ± 0.63 mm
- Diameter of inhibition zone (C. inconspicua [3]): 21.9 ± 1.20 mm
- Diameter of inhibition zone (C. kefyr [4]): 26.3 ± 1.20 mm
- Diameter of inhibition zone (C. kefyr [4]; listed as amphotericin B): 26.3±1.20 mm
- Diameter of inhibition zone (C. norvegensis [5]): 28.7 ± 0.72 mm
- Diameter of inhibition zone (C. dubliniensis [6]): 24.1 ± 1.20 mm
- Diameter of inhibition zone (Candida albicans [7]): 26.3 ± 1.20 mm
- Diameter of inhibition zone (C. glabrata [8]): 19.3 ± 2.10 mm
- Diameter of inhibition zone (C. tropicalis [9]): 19.6 ± 1.50 mm
- Diameter of inhibition zone (C. famata [10]): 20.4 ± 0.63 mm
- Minimum Inhibitory Concentration (MIC) (C. parapsilosis [11]): 00.49 µg/mL
- Minimum Inhibitory Concentration (MIC) (C. krusei [12]): 00.98 µg/mL
- Minimum Inhibitory Concentration (MIC) (C. inconspicua [13]): 00.98 µg/mL
- Minimum Inhibitory Concentration (MIC) (C. kefyr [14]): 00.49 µg/mL
- Minimum Inhibitory Concentration (MIC) (C. norvegensis [15]): 00.49 µg/mL
- Minimum Inhibitory Concentration (MIC) (C. dubliniensis [16]): 00.49 µg/mL
- Minimum Inhibitory Concentration (MIC) (Candida albicans [17]): 00.49 µg/mL
- Minimum Inhibitory Concentration (MIC) (C. glabrata [18]): 03.90 µg/mL
- Minimum Inhibitory Concentration (MIC) (C. tropicalis [19]): 03.90 µg/mL
- Minimum Inhibitory Concentration (MIC) (C. famata [20]): 03.90 µg/mL
